Tests used:
[1] = system: thrombin time (TT), plasma; test: Anticoagulant activity, thrombin time (TT) in human plasma; type: biochemical, man; details: human platelet-depleted plasma, 2 min at 37° C.
Method: (§1) In the presence of a standard quantity of thrombin or of calcium thromboplastin a normal plasma coagulates in a defined and constant time, called thrombin time (TT) and prothrombin time (PT) respectively. Venous blood is collected at the elbow bend into a trisodium citrate (0.109M) solution. A plasma depleted in platelets is obtained by centrifuging the blood samples (3000 g, 15 minutes). The thrombin time is obtained with the Thrombin Prest (Stago) reagent and the prothrombin time with the Neoplastine (Stago) reagent. They are determined automatically by employing an ST4 (Stago) coagulometer. […] In these conditions the TT obtained in the control plasma is of the order of 20 seconds in man, and PT of the order of 12 seconds. The activity of an inhibitor is evaluated by its ability to lengthen these times when compared with the control. In these conditions the compounds of the invention permit a lengthening of the thrombin time and of the prothrombin time of 50-fold and more. The effect of the inhibitors is measured and the concentration which doubles the coagulation time (CTT2 for the thrombin time and CPT2 for the prothrombin time) is determined.

[2] = system: prothrombin time (PT), plasma; test: Anticoagulant activity, prothrombin time (PT) in human plasma; type: biochemical, man; details: human platelet-depleted plasma, 2 min at 37° C., calcium thromboplastin
Method: as §1

[3] = biological target: T1, human thrombin (Homo sapiens, UniProt P00734); test: Inhibition of thrombin (fibrinogen substrate, fibrin formation at 405 nm); type: biochemical; details: for IC50: thrombin 0.7 nM, preincubation 20° C. 10 minutes, fibrinogen, read-out: CI50 Thrombin
T1 construct: human thrombin (Sigma, specific activity 3220 NIHU/mg); purchased Sigma
Method: In order to evaluate in vitro the inhibiting activity of the boro-Arginic products on human thrombin (Sigma, specific activity 3220 NIHU/mg), purified human fibrinogen ([…], Enzyme Research Laboratories) was added to a given quantity of thrombin (0.7 nM) previously incubated with or without the inhibitor to be tested (20° C., 10 minutes).
(§2) Inhibitors, enzymes and substrates are diluted in the same buffer ([…] phosphate buffer, pH 7.4, containing 0.12M of sodium chloride and 0.05% of bovine albumin serum) and then distributed into a microplate made of polystyrene in a volume of 50 1.
(§3) The fibrin formed by the thrombin or the para-nitroanilide released by the action of the serine protease are measured spectrophotometrically at 405 nm after 5 or 30 minutes' reaction at 20° C. respectively.

[4] = biological target: T2, purified human plasmin (Homo sapiens, UniProt P00747); test: Inhibition of plasmin (pNA substrate S 2403); type: biochemical; details: enzyme 2 nM, 30 minutes at 20° C.; read-out: CI50 Plasmin
T2 construct: purified human plasmin (2 nM, Stago); purchased Stago
T2 sequence (P00747 581-810 limits assumed): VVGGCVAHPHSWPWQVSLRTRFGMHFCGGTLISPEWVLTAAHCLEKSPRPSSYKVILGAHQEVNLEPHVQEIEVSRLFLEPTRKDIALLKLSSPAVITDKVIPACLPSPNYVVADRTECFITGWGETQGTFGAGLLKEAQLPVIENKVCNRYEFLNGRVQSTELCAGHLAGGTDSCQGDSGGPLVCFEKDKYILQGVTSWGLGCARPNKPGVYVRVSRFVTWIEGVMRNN
T2 sequence (P00747 97-580 partner limits assumed): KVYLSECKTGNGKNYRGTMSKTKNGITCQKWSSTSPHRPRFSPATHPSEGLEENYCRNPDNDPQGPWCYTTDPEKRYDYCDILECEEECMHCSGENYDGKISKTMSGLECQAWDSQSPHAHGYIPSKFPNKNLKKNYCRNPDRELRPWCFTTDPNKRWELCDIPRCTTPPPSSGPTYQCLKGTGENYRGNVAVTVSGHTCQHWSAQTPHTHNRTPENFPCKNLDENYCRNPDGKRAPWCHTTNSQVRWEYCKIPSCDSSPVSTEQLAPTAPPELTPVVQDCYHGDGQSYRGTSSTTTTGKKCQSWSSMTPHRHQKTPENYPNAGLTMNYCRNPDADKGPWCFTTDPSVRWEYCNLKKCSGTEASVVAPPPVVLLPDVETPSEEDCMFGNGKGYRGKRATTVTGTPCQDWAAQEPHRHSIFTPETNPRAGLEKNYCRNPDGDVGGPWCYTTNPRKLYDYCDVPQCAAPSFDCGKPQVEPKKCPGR
Method: (§4) In order to evaluate in vitro the selectivity of these products in respect of different serine proteases of fibrinolysis and coagulation, the same protocol is applied to purified human plasmin (2 nM, Stago), to purified human activated protein C (2 nM, Stago), to purified human activated factor X (2 nM, Calbiochem), to the tissue activator of plasminogen (2 nM, Calbiochem), to purified human urokinase (2 nM, Choay), to purified human plasma kallikrein (2 nM, Calbiochem), using as substrates different peptide para-nitroanilides: <Glu-Phe-Lys-pNA (0.50mM, S 2403, Kabi) for plasmin, N-Cbo-Arg-Gly-Arg-pNA (0.39 mM, S 2765, Kabi) for the factor Xa<Glu-Pro-Arg-pNA (0.52 mM, S 2366, Kabi) for activated protein C, H-D-Pro-Phe-Arg-pNA (0.45 mM, S 2302, Kabi) for kallikrein, H-(D)-Ile-Pro-Arg-pNA (0.48 mM, S 2288, Kabi) for the tissue activator of plasminogen and <Glu-Gly-Arg-pNA (0.56 mM, S 2444, Kabi) for urokinase.
as §2, §3

[5] = biological target: T3, tissue activator of plasminogen (Homo sapiens, UniProt P00750); test: Inhibition of tPA (pNA substrate S 2288); type: biochemical; details: enzyme 2 nM, 30 minutes at 20° C.; read-out: CI50 tPA
T3 construct: purchased Calbiochem
T3 sequence (P00750 23-562 limits assumed): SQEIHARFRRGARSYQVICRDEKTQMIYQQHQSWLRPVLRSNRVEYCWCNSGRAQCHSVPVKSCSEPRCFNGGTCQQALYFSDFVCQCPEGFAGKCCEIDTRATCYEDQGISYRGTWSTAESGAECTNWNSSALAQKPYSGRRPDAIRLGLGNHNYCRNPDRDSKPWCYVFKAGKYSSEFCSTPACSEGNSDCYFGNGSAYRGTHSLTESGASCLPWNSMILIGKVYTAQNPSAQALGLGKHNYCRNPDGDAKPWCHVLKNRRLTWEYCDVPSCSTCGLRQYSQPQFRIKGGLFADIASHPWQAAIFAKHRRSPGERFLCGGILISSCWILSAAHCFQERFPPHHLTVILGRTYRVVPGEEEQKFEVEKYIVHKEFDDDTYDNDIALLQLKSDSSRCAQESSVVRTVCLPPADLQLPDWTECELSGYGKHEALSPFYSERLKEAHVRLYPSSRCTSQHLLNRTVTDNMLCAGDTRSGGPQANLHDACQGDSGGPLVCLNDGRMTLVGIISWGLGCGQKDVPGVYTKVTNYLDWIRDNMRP
Method: as §4, §2, §3

[6] = biological target: T4, purified human urokinase (Homo sapiens, UniProt P00749); test: Inhibition of urokinase (pNA substrate S 2444); type: biochemical; details: enzyme 2 nM, 30 minutes at 20° C.; read-out: CI50 Urokinase
T4 construct: purchased Choay
Method: as §4, §2, §3

[7] = biological target: T5, purified human activated factor X (Homo sapiens, UniProt P00742); test: Inhibition of factor Xa (pNA substrate S 2765); type: biochemical; details: enzyme 2 nM, 30 minutes at 20° C.; read-out: CI50 FXa
T5 construct: purchased Calbiochem
T5 sequence (P00742 235-488 limits assumed): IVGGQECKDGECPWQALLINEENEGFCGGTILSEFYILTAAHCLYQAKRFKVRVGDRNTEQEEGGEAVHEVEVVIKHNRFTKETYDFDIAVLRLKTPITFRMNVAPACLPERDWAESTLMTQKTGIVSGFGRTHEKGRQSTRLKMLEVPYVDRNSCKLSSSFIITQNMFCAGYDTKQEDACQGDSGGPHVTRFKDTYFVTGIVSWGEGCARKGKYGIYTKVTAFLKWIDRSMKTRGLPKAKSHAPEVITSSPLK
T5 sequence (P00742 41-179 partner limits assumed): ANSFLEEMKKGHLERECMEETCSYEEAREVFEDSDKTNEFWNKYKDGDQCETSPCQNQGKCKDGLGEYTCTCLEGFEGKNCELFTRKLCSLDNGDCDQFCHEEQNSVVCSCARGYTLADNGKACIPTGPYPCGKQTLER
Method: as §4, §2, §3

[8] = biological target: T6, purified human plasma kallikrein (Homo sapiens, UniProt P03952); test: Inhibition of plasma kallikrein (pNA substrate S 2302); type: biochemical; details: enzyme 2 nM, 30 minutes at 20° C.; read-out: CI50 Kalli
T6 construct: purified human plasma kallikrein (2 nM, Calbiochem); purchased Calbiochem
T6 sequence (P03952 391-638 limits assumed): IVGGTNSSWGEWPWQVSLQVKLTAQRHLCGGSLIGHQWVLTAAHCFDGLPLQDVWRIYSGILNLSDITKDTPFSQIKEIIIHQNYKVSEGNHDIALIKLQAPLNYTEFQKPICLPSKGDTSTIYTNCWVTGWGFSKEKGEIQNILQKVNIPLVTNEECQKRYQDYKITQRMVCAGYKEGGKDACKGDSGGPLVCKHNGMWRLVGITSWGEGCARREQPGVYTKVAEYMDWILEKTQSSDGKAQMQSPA
T6 sequence (P03952 20-390 partner limits assumed): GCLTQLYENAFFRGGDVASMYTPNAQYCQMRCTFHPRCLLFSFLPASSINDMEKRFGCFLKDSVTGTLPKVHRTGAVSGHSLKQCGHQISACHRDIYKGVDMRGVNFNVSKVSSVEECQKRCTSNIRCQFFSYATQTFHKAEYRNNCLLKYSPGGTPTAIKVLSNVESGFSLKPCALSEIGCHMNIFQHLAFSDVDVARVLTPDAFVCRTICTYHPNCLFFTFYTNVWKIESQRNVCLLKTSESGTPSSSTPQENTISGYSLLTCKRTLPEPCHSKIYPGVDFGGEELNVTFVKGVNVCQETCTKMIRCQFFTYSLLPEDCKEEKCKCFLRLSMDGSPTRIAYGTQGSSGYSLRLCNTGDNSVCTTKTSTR
Method: as §4, §2, §3

[9] = biological target: T7, purified human activated protein C (Homo sapiens, UniProt P04070); test: Inhibition of activated protein C (pNA substrate S 2366); type: biochemical; details: enzyme 2 nM, 30 minutes at 20° C.; read-out: CI50 PCa
T7 construct: purchased Stago
T7 sequence (P04070 212-450 limits assumed): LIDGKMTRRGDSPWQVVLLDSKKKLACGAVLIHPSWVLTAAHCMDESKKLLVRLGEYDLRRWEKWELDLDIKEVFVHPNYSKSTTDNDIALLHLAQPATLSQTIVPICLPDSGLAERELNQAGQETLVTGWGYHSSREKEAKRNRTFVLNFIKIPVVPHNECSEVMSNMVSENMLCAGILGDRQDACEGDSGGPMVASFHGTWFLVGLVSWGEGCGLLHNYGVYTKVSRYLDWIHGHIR
T7 sequence (P04070 43-197 partner limits assumed): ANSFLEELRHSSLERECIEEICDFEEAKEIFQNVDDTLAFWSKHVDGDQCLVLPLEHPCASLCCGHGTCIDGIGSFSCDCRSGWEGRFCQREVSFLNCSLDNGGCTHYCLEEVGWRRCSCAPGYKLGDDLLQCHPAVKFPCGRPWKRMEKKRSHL
Method: as §4, §2, §3

[10] = system: activated cephalin time (ACT); test: Anticoagulant activity ex vivo, i.v. route in the dog (ACT); details: for ACT increase index: 0.5 mg/kg i.v.
Excerpt: The dogs are left breathing freely.

[11] = system: platelets; test: Number of platelets after i.v. administration in the dog; details: 0.25 mg/kg i.v.
Method: Fasted dogs are anaesthetized with pentobarbital (30 mg/kg, i.v.). A femoral artery and a saphenous vein are exposed and catheterized. The dogs are left breathing freely.

[12] = system: activated cephalin time (ACT); test: Anticoagulant activity ex vivo, i.v. route in the rat (ACT); details: 0.25 mg/kg i.v.
Method: OFA rats, fasted or not, are anaesthetized with pentobarbital (60 mg/kg, i.p.). The carotid artery and the jugular vein are exposed and catheterized. The catheters are purged with citrated physiological saline (1/40). After installation of the catheters a sampling of 1.5 cm^3 of arterial blood is performed on 0.109 M citrate (1/9).
30 minutes later the product to be tested is administered i.v. in a volume of 1 ml.
Arterial samplings (1.5 ml) are then performed at 1 minute 30, 5, 15, 30 and 60 minutes.
At each sampling 1.5 ml of citrated physiological saline is reinjected into the animal via the carotid.
The tubes of blood are centrifuged for 5 minutes at 3000 g (preparation of the plasma).
100 1 of plasma are incubated with 100 1 of activated cephalin. The time of appearance of the coagulation phenomenon is measured after addition of 100 1 of calcium.
The results are reproduced in the following table and show the indices of increase in the coagulation time.

[13] = system: thrombin time; test: Anticoagulant activity ex vivo, oral route in the dog (thrombin time); details: 2.5 mg/kg oral
Method: (§5) After a blood sample has been taken, the products are administered orally. At specified times after the treatment the blood is sampled intravenously. The plasma is prepared, the platelets are counted and the thrombin time test is carried out.
(§6) The activity is durable (4 hours).

[14] = system: platelets; test: Number of platelets after oral administration in the dog; type: in vivo; details: 2.5 mg/kg oral
Method: as §5, §6

Molecule | CTT2 (concentration which doubles the thrombin time) [1] [µM] | CTP2 (concentration which doubles the prothrombin time) [2] [µM] | selectivity for thrombin versus other serine proteases, compared with DUP 714 ([3]; comparison of CI50 values) | IC50 [3] [nM] | IC50 [4] [nM] | IC50 [5] [nM] | IC50 [6] [nM] | IC50 [7] [nM] | IC50 [8] [nM] | IC50 [9] [nM] | also measured
1-(R)-{[Ac-(R)Phe-(N-cyclopentyl)Gly]amino}-4-(1N-methylguanidino)butylboronic Acid Acetate [Example 8] | 0.30 | 3.06 | much more selective inhibitors of thrombin than DUP 714 | 0.74 | > 33000 | 395 | > 33000 | > 330000 | 1080 | 458 | –
CC(=O)N[C@H](Cc1ccccc1)C(=O)N1CCC[C@H]1C(=O)N[C@@H](CCCN=C(N)N)B(O)O [DUP 714, Ac-(D)Phe-Pro-Arg-boronic acid, reference compound] | 0.18 | 2.63 | – | – | 24 | 5.3 | 22 | 81 | 6.8 | 15 | increase in the ACT ([10]; 0.25 mg/kg i.v.): comparable with that obtained with Example 2 in a dosage of 0.5 mg/kg; thrombopenia [11]: 20%
CC(=O)N[C@H](Cc1ccccc1)C(=O)N(CC(=O)N[C@@H](CCCSC(=N)N)B(O)O)C1CCCC1.CC(=O)O [Example 2, 1-(R )-{[Ac-(R)Phe-(N-cyclopentyl)Gly]amino}-4-(isothioureido)butylboronic Acid Acetate] | 0.20 | 2.29 | much more selective inhibitors of thrombin than DUP 714 | 0.59 | 1040 | 108 | 2500 | > 100000 | 164 | 593 | thrombin inhibition compared with DUP 714 ([3]; comparison of CI50 values): as powerfully as DUP 7 14; index of increase in the coagulation time (ACT) ([12]; 1.5 minutes): 2.6; index of increase in the coagulation time (ACT) ([12]; 5 minutes): 1.8; index of increase in the coagulation time (ACT) ([12]; 15 minutes): 1.2; index of increase in the coagulation time (ACT) ([12]; 30 minutes): 1.2; index of increase in the coagulation time (ACT) ([12]; 60 minutes): 1.1; ACT increase index ([10]; 1.5 minutes): 9.6; ACT increase index ([10]; 5 minutes): 3.6; ACT increase index ([10]; 15 minutes): 1.9; ACT increase index ([10]; 30 minutes): 1.4; ACT increase index ([10]; 60 minutes): 1.1; duration of activity (TT increase) [13]: 4 h; increase in the TT ([13]; 0.5 hours): 1.1; increase in the TT ([13]; 1 hour): 1.6; increase in the TT ([13]; 2 hours): 1.5; increase in the TT ([13]; 4 hours): 1.1; modification of the number of platelets [14]: without modification of the number of platelets
CC(=O)NC(Cc1ccccc1)C(=O)N(CC(=O)N[C@@H](CCCSC(=N)N)B(O)O)C1CCCCC1.CC(=O)O (stereo partly drawn) [Example 4, 1-(R)-{[Ac-(R,S)Phe-(N-cyclohexyl)Gly]amino}-4-(isothioureido) butylboronic Acid Acetate] | 0.34 | 2.44 | – | – | – | – | – | – | – | – | –
CC(=O)N[C@H](Cc1ccccc1)C(=O)N(CC(=O)N[C@@H](CCCSC(=N)N)B(O)O)C1CCCCC1.CC(=O)O [Example 6, 1-(R)-{[Ac-(R)Phe-(N-cyclohexyl)Gly]amino}-4-(isothioureido)butylboronic Acid Acetate] | 0.29 | 2.92 | much more selective inhibitors of thrombin than DUP 714 | 1.75 | 1260 | 92 | 1510 | 10800 | 181 | 467 | –

Source: US5585360A, “Peptide compounds derived from boronic acid” (Adir et Compagnie, priority 1994, dated 1996)
